Measurements: patent US9796711B2, “Substituted pyrazolo[3,4-b]pyridin-6-carboxylic acids and method of use” (AbbVie S.àr.l., priority 2015, dated 2017)
pEC50: −log10 of the molar value.

Columns and labels:
[1] = molecular target: T1, ΔF508-CFTR (Homo sapiens, UniProt P13569, DEL508-508); test: CFTR cell surface levels using HRP-tagged ΔF508-CFTR expressing CFBE cells, intrinsic corrector capacity; type: cell-based; settings: HRP-tagged ΔF508-CFTR expressing CFBE cells, intrinsic corrector capacity (no co-corrector), 33° C., 20 hours; for pEC50: read-out: EC50
T1 construct: host or cells: CFBE41o-, doxycycline-inducible
T1 sequence (P13569 with tags, fused parts or gaps DEL508-508): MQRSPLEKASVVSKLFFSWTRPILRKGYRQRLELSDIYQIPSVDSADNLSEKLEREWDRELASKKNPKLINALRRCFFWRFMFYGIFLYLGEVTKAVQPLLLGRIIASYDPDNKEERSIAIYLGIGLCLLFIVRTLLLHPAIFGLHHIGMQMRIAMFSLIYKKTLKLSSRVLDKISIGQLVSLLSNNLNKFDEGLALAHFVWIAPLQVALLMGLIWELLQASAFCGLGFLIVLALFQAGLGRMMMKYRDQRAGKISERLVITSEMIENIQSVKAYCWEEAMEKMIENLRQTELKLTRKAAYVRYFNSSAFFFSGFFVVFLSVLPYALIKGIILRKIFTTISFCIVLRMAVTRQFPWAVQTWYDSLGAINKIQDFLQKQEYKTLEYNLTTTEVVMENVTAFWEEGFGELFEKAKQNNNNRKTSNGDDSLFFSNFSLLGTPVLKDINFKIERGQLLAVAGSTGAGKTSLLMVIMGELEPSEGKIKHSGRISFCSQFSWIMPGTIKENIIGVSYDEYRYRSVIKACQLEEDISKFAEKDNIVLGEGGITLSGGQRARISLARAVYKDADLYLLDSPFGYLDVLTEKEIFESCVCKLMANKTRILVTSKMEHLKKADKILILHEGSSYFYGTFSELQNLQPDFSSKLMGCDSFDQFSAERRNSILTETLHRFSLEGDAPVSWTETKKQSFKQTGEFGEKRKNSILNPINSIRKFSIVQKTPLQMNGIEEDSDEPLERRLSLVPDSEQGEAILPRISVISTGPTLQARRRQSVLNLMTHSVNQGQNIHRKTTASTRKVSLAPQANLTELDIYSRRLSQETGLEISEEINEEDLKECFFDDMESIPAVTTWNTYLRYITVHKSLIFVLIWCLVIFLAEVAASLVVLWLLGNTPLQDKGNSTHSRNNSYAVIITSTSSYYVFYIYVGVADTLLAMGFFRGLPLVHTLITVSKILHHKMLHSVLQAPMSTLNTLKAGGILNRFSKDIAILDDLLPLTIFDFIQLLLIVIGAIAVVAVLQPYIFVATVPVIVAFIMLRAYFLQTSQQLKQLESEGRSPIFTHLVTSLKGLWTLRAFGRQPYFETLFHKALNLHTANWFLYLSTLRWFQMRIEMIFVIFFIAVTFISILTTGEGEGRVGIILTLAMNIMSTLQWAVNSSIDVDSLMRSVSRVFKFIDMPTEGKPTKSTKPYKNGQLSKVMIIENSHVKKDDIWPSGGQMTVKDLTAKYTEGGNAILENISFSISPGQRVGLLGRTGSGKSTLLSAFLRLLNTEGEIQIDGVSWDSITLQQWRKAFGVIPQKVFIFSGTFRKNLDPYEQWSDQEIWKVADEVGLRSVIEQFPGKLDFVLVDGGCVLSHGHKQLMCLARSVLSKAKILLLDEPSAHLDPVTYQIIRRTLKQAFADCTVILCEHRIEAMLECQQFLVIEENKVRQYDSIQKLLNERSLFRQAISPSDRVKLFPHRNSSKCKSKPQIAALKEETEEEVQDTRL
Summary of the method: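 Here the cells express ΔF508-CFTR with horseradish peroxidase inserted in extracellular loop 4, so only rescued channel at the surface gives luminescent signal. Compounds act on their own, 20 h at the reduced temperature of 33 °C; values are percent activity relative to DMSO and a 3 μM corrector.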

[2] = molecular target: T1, ΔF508-CFTR; test: CFTR cell surface levels using HRP-tagged ΔF508-CFTR expressing CFBE cells, in the presence of a co-corrector; type: cell-based; settings: HRP-tagged ΔF508-CFTR expressing CFBE cells, in the presence of 3 μM co-corrector; for pEC50: read-out: EC50
Summary of the method: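 Cells were seeded with 0.5 μg/mL doxycycline and held 68 h at 37 °C. Test compounds plus 3 μM co-corrector (final 0.1% DMSO) were then added for 20 h at 33 °C. Washed cells received HRP substrate, and luminescence was normalized between DMSO and 3 μM co-corrector controls.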

O=C(O)c1cc(N2CCN(CC(F)(F)F)CC2)c2c(C3CCC3)nn(-c3ccccc3)c2n1 [compound 470, 3-cyclobutyl-1-phenyl-4-[4-(2,2,2-trifluoroethyl)piperazin-1-yl]-1H-pyrazolo[3,4-b]pyridine-6-carboxylic acid]
% Activation [1]: 147.5%
pEC50 [1]: 6.13
% Activation [2]: 311.25%
pEC50 [2]: 6.37

O=C(O)c1cc(N2CCN(CCCO)CC2)c2c(C3CCC3)nn(-c3ccccc3)c2n1 [compound 471, 3-cyclobutyl-4-[4-(3-hydroxypropyl)piperazin-1-yl]-1-phenyl-1H-pyrazolo[3 ,4-b]pyridine-6-carboxylic acid]
% Activation [1]: 106.45%
pEC50 [1]: 5.48
% Activation [2]: 259.9%
pEC50 [2]: 5.52

O=C(O)c1cc(N2CCN(CC(=O)N3CCCC3)CC2)c2c(C3CCC3)nn(-c3ccccc3)c2n1 [compound 472, 3-cyclobutyl-4-{4-[2-oxo-2-(pyrrolidin-1-yl)ethyl]piperazin-1-yl}-1-phenyl-1H-pyrazolo[3,4-b]pyridine-6-carboxylic acid]
% Activation [1]: 144%
pEC50 [1]: 5.60
% Activation [2]: 292.55%
pEC50 [2]: 5.86

O=C(O)c1cc(N2CCCCCC2)c2c(C3CCC3)nn(-c3ccccc3)c2n1 [compound 473, 4-(azepan-1-yl)-3-cyclobutyl-1-phenyl-1H-pyrazolo[3,4-b]pyridine-6-carboxylic acid]
% Activation [1]: 102.9%
pEC50 [1]: 5.99
% Activation [2]: 280.9%
pEC50 [2]: 6.26

O=C(O)c1cc(N2CCN(CC(=O)N3CCOCC3)CC2)c2c(C3CCC3)nn(-c3ccccc3)c2n1 [compound 474, 3-cyclobutyl-4-{4-[2-(morpholin-4-yl)-2-oxoethyl]piperazin-1-yl}-1-phenyl-1H-pyrazolo[3,4-b]pyridine-6-carboxylic acid]
% Activation [1]: 125.3%
pEC50 [1]: 5.48
% Activation [2]: 301.35%
pEC50 [2]: 5.65

O=C(O)c1cc(N2CCN3C[C@H](O)C[C@H]3C2)c2c(C3CCC3)nn(-c3ccccc3)c2n1 [compound 475, 3-cyclobutyl-4-[(7R,8aS)-7-hydroxyhexahydropyrrolo[1,2-a]pyrazin-2(1H)-yl]-1-phenyl-1H-pyrazolo[3,4-b]pyridine-6-carboxylic acid]
% Activation [1]: 35.755%
pEC50 [1]: 5.18
% Activation [2]: 163.35%
pEC50 [2]: 5.57

CC1(COc2cc(C(=O)O)nc3c2c(C2CCC2)nn3-c2ccccc2)CC(F)(F)C1 [compound 476, 3-cyclobutyl-4-[(3,3-difluoro-1-methylcyclobutyl)methoxy]-1-phenyl-1H-pyrazolo[3,4-b]pyridine-6-carboxylic acid]
% Activation [1]: 121.45%
pEC50 [1]: 6.29
% Activation [2]: 297.8%
pEC50 [2]: 6.41

O=C(O)c1cc(OCCC2CC(F)(F)C2)c2c(C3CCC3)nn(-c3ccccc3)c2n1 [compound 477, 3-cyclobutyl-4-[2-(3,3-difluorocyclobutyl)ethoxy]-1-phenyl-1H-pyrazolo[3,4-b]pyridine-6-carboxylic acid]
% Activation [1]: 97.78%
pEC50 [1]: 5.99
% Activation [2]: 266.3%
pEC50 [2]: 6.30

CC(C)N(CCOc1cc(C(=O)O)nc2c1c(C1CCC1)nn2-c1ccccc1)C1COC1 [compound 478, 3-cyclobutyl-4-{2-[(oxetan-3-yl)(propan-2-yl)amino]ethoxy}-1-phenyl-1H-pyrazolo[3,4-b]pyridine-6-carboxylic acid]
% Activation [1]: 125.2%
pEC50 [1]: 6.08
% Activation [2]: 292%
pEC50 [2]: 6.39

CC(=O)N1CCC(F)(COc2cc(C(=O)O)nc3c2c(C2CCC2)nn3-c2ccccc2)CC1 [compound 479, 4-[(1-acetyl-4-fluoropiperidin-4-yl)methoxy]-3-cyclobutyl-1-phenyl-1H-pyrazolo[3,4-b]pyridine-6-carboxylic acid]
% Activation [1]: 114.41%
pEC50 [1]: 5.73
% Activation [2]: 317.77%
pEC50 [2]: 5.73

O=C(O)c1cc(OC[C@@H]2CCCO2)c2c(C3CCC3)nn(-c3ccccc3)c2n1 [compound 480, 3-cyclobutyl-4-{[(2S)-oxolan-2-yl]methoxy}-1-phenyl-1H-pyrazolo[3,4-b]pyridine-6-carboxylic acid]
% Activation [1]: 115.15%
pEC50 [1]: 6.06
% Activation [2]: 270.4%
pEC50 [2]: 6.44

COC1CN(C(=O)COc2cc(C(=O)O)nc3c2c(C2CCC2)nn3-c2ccccc2)C1 [compound 481, 3-cyclobutyl-4-[2-(3-methoxyazetidin-1-yl)-2-oxoethoxy]-1-phenyl-1H-pyrazolo[3,4-b]pyridine-6-carboxylic acid]
% Activation [1]: 48.6%
pEC50 [1]: 5.48
% Activation [2]: 210.3%
pEC50 [2]: 5.52

CN1CCC([C@@H](F)COc2cc(C(=O)O)nc3c2c(C2CCC2)nn3-c2ccccc2)CC1 [compound 482, 3-cyclobutyl-4-[(2R)-2-fluoro-2-(1-methylpiperidin-4-yl)ethoxy]-1-phenyl-1H-pyrazolo[3,4-b]pyridine-6-carboxylic acid]
% Activation [1]: 144.75%
pEC50 [1]: 5.79
% Activation [2]: 284.7%
pEC50 [2]: 6.15

O=C(O)c1cc(OCCOC2COC2)c2c(C3CCC3)nn(-c3ccccc3)c2n1 [compound 483, 3-cyclobutyl-4-{2-[(oxetan-3-yl)oxy]ethoxy}-1-phenyl-1H-pyrazolo[3,4-b]pyridine-6-carboxylic acid]
% Activation [1]: 142.4%
pEC50 [1]: 6.05
% Activation [2]: 267%
pEC50 [2]: 6.44

COCCC1(CCOc2cc(C(=O)O)nc3c2c(C2CCC2)nn3-c2ccccc2)CC1 [compound 484, 3-cyclobutyl-4-{2-[1-(2-methoxyethyl)cyclopropyl]ethoxyl}-1-phenyl-1H-pyrazolo[3,4-b]pyridine-6-carboxylic acid]
% Activation [1]: 113.5%
pEC50 [1]: 5.95
% Activation [2]: 226.6%
pEC50 [2]: 6.43

COCCC1(COc2cc(C(=O)O)nc3c2c(C2CCC2)nn3-c2ccccc2)CC1 [compound 485, 3-cyclobutyl-4-{[1-(2-methoxyethyl)cyclopropyl]methoxyl}-1-phenyl-1H-pyrazolo[3,4-b]pyridine-6-carboxylic acid]
% Activation [1]: 107.5%
pEC50 [1]: 5.97
% Activation [2]: 242.05%
pEC50 [2]: 6.48

O=C(O)c1cc(OCC2CCCC2(F)F)c2c(C3CCC3)nn(-c3ccccc3)c2n1 (stereo not drawn) [compound 486, 3-cyclobutyl-4-[(2,2-difluorocyclopentyl)methoxy]-1-phenyl-1H-pyrazolo[3,4-b]pyridine-6-carboxylic acid]
% Activation [1]: 127%
pEC50 [1]: 6.22
% Activation [2]: 299%
pEC50 [2]: 6.47

O=C(O)c1cc(OCCCN2CCOCC2)c2c(C3CCC3)nn(-c3ccccc3)c2n1 [compound 487, 3-cyclobutyl-4-[3-(morpholin-4-yl)propoxy]-1-phenyl-1H-pyrazolo[3,4-b]pyridine-6-carboxylic acid]
% Activation [1]: 142.7%
pEC50 [1]: 6.08
% Activation [2]: 316.5%
pEC50 [2]: 6.31

O=C(O)c1cc(OCCC2OCCCO2)c2c(C3CCC3)nn(-c3ccccc3)c2n1 [compound 488, 3-cyclobutyl-4-[2-(1,3-dioxan-2-yl)ethoxy]-1-phenyl-1H-pyrazolo[3,4-b]pyridine-6-carboxylic acid]
% Activation [1]: 95.49%
pEC50 [1]: 6.12
% Activation [2]: 261.9%
pEC50 [2]: 6.34

O=C(O)c1cc(OCCCF)c2c(C3CCC3)nn(-c3ccccc3)c2n1 [compound 489, 3-cyclobutyl-4-(3-fluoropropoxy)-1-phenyl-1H-pyrazolo[3,4-b]pyridine-6-carboxylic acid]
% Activation [1]: 106.4%
pEC50 [1]: 5.73
% Activation [2]: 274.95%
pEC50 [2]: 6.11

CC1(COc2cc(C(=O)O)nc3c2c(C2CCC2)nn3-c2ccccc2)COC1 [compound 490, 3-cyclobutyl-4-[(3-methyloxetan-3-yl)methoxy]-1-phenyl-1H-pyrazolo[3,4-b]pyridine-6-carboxylic acid]
% Activation [1]: 144.95%
pEC50 [1]: 6.40
% Activation [2]: 311.1%
pEC50 [2]: 6.53

COCC(COC)Oc1cc(C(=O)O)nc2c1c(C1CCC1)nn2-c1ccccc1 [compound 491, 3-cyclobutyl-4-[(1,3-dimethoxypropan-2-yl)oxy]-1-phenyl-1H-pyrazolo[3,4-b]pyridine-6-carboxylic acid]
% Activation [1]: 82.97%
pEC50 [1]: 5.64
% Activation [2]: 256.5%
pEC50 [2]: 6.02

CN(C)[C@H]1C[C@@H](Oc2cc(C(=O)O)nc3c2c(C2CCC2)nn3-c2ccccc2)C1 [compound 492, 3-cyclobutyl-4-{[cis-3-(dimethylamino)cyclobutyl]oxy}-1-phenyl-1H-pyrazolo[3,4-b]pyridine-6-carboxylic acid]
% Activation [1]: 84.2%
pEC50 [1]: 5.63
% Activation [2]: 239.55%
pEC50 [2]: 5.60

CC1OCC(Oc2cc(C(=O)O)nc3c2c(C2CCC2)nn3-c2ccccc2)CO1 (stereo not drawn) [compound 493, 3-cyclobutyl-4-[(2-methyl-1,3-dioxan-5-yl)oxy]-1-phenyl-1H-pyrazolo[3,4-b]pyridine-6-carboxylic acid]
% Activation [1]: 129.05%
pEC50 [1]: 6.19
% Activation [2]: 286.5%
pEC50 [2]: 6.40
